Results as given in PubChem BioAssay AID504419 (The Scripps Research Institute Molecular Screening Center, 2011).
pIC50: −log10 of the molar value. “And” between values parts separate entries of the source, which are not always exact repeats. Equal entries are not always repeated. The source made the active and inactive calls. How the calls were made is not given here.

How the values were obtained:
NS3h 1b (con1) = experiment: NS3 helicase inhibitors across HCV genotypes, late-stage follow-up, selectivity assay for HCV NS3 helicase inhibitor project, biochemical, real-time fluorescence, genotypes 2a and 1b, Set 2 (AID 504419); settings: Recombinant NS3 helicase, real-time fluorescence unwinding
NS3h 2a (JFH1) = experiment: as above; settings: Recombinant NS3 helicase, real-time fluorescence unwinding

Row | SMILES | IC50 (NS3h 1b (con1)) | IC50 (NS3h 2a (JFH1)) | pIC50 (NS3h 2a (JFH1)) | pIC50 (NS3h 1b (con1))
1 | O=c1c2c(-c3ccco3)csc2nc(SCc2cn3ncccc3n2)n1-c1ccccc1 | > 100 µM (inactive) | > 100 µM (inactive) | – | –
2 | Cc1ccc2nc(-c3ccc4nc(-c5ccc(NC(=O)c6ccc(N(C)C)cc6)cc5)sc4c3)sc2c1S(=O)(=O)O | inactive | – | 5.21 | –
3 | COc1cc2oc(=O)cc(-c3ccc(-c4ccc(CO)cc4)cc3)c2c(OC)c1OC | > 100 µM (inactive) | > 100 µM (inactive) | – | –
4 | COc1ccc([C@H]2C[C@@H](c3ccccc3)Oc3cc(OC)c(OC)c(OC)c32)cc1 | > 100 µM (inactive) | > 100 µM (inactive) | – | –
5 | CCCCOc1ccccc1C(=O)NNC(=S)NC(=O)c1ccccc1[N+](=O)[O-] | > 100 µM (inactive) | > 100 µM (inactive) | – | –
6 | C=C1c2cccc(O)c2C(O)=C2C(=O)[C@]3(O)C(O)=C(C(N)=O)C(=O)[C@@H](N(C)C)[C@@H]3[C@@H](O)[C@H]12 | inactive | > 100 µM (inactive) | – | –
7 | O=C(Nc1nc(-c2ccco2)c(-c2ccco2)s1)C1CCC1 | > 16.4 µM (inactive) | > 100 µM (inactive) | – | –
8 | COC(=O)c1ccc(C(=O)Nc2ccc(-c3nc4ccc(-c5nc6ccc(C)c(S(=O)(=O)O)c6s5)cc4s3)cc2)cc1 | – | – | 5.30 | 5.16
9 | Cc1ccc2nc(-c3ccc4nc(-c5ccc(NC(=O)c6ccc7ccccc7c6)cc5)sc4c3)sc2c1S(=O)(=O)O | – | – | 5.77 | 5.53
10 | Cc1ccc(C(=O)Nc2ccc(-c3nc4ccc(-c5nc6ccc(C)c(S(=O)(=O)O)c6s5)cc4s3)cc2)cc1 | – | – | 5.48 | 5.43
11 | Cc1ccc2nc(-c3ccc4nc(-c5ccc(NC(=O)c6ccc(N)cc6)cc5)sc4c3)sc2c1S(=O)(=O)O | – | – | 5.36 | 5.11
12 | CCN(CC)S(=O)(=O)c1cccc(C(=O)N/N=C/c2ccc(O)c(O)c2O)c1 | > 100 µM (inactive) | > 100 µM (inactive) | – | –
13 | O=C(NC(=S)Nc1ccc(-c2ccc(CO)o2)cc1)c1cccs1 | > 100 µM (inactive) | > 100 µM (inactive) | – | –
14 | COc1ccc(C(=O)Nc2ccc(-c3nc4ccc(-c5nc6ccc(C)c(S(=O)(=O)O)c6s5)cc4s3)cc2)cc1 | – | – | 5.24 | 5.08
15 | COc1cc2oc(=O)cc(-c3ccc(-c4ccc(NC(C)=O)cc4)cc3)c2c(OC)c1OC | > 100 µM (inactive) | > 100 µM (inactive) | – | –
16 | CNc1ccc(Br)cc(C(=O)/C=C/c2cc(OC)ccc2OC)c1=O | > 100 µM (inactive) | > 100 µM (inactive) | – | –

Row | SMILES | IC50 (NS3h 1b (con1)) | IC50 (NS3h 2a (JFH1)) | pIC50 (NS3h 2a (JFH1)) | pIC50 (NS3h 1b (con1))
17 | O=C(c1ccc2nc(-c3ccco3)c(-c3ccco3)nc2c1)N1CCN(c2ccccc2)CC1 | > 100 µM (inactive) | > 100 µM (inactive) | – | –
18 | COc1cc(OC)c2c(-c3ccccc3)cc(=O)oc2c1[C@H](CCN1CCN(c2ccccc2)CC1)c1ccc(N(C)C)cc1 | > 33.2 µM (inactive) | > 80.3 µM (inactive) | – | –
19 | Cc1ccc(/C=C/C(=O)Nc2ccc([N+](=O)[O-])c(NC(=O)/C=C/c3ccc(C)o3)c2)o1 | > 38.1 µM (inactive) | > 100 µM (inactive) | – | –
20 | CC(C)C(C)(C#N)NC(=O)CSc1nc2scc(-c3ccco3)c2c(=O)n1-c1ccccc1 (stereo not given) | > 100 µM (inactive) | > 100 µM (inactive) | – | –
21 | COc1cc(Br)cc(C2C(C(=O)c3ccc(C)o3)=C(O)C(=O)N2c2cc(C)on2)c1OC (stereo not given) | > 100 µM (inactive) | > 100 µM (inactive) | – | –
22 | Cc1ccc(NC(=O)Nc2ccc(-c3nc4ccc(-c5nc6ccc(C)c(S(=O)(=O)O)c6s5)cc4s3)cc2)cc1 | – | – | 5.49 | 5.23
23 | Cc1ccc2nc(-c3ccc4nc(-c5ccc(NC(=O)c6ccc7nc(-c8ccc(N)cc8)sc7c6)cc5)sc4c3)sc2c1S(=O)(=O)O | – | – | 5.60 | 5.12
24 | C/C(=N\NC(N)=S)c1cc(-c2ccccc2)c(-c2ccccc2)s1 | > 100 µM (inactive) | > 100 µM (inactive) | – | –
25 | NC(=S)N/N=C/c1ccc(C23CC4CC(CC(C4)C2)C3)cc1 | > 100 µM (inactive) | > 100 µM (inactive) | – | –
26 | Cc1ccc2nc(-c3ccc4nc(-c5ccc(NC(=O)c6ccc(C(C)(C)C)cc6)cc5)sc4c3)sc2c1S(=O)(=O)O | inactive | – | 5.30 | –
27 | COc1cc(Br)cc(C2C(C(=O)c3ccc(C)o3)=C(O)C(=O)N2Cc2ccccc2)c1OC (stereo not given) | > 100 µM (inactive) | > 100 µM (inactive) | – | –
28 | Cc1ccc2nc(-c3ccc4nc(-c5ccc(NC(=O)c6ccc(F)cc6)cc5)sc4c3)sc2c1S(=O)(=O)O | – | – | 5.56 | 5.27
29 | Nc1c(C(=O)Nc2ccccc2F)sc2nc(-c3ccco3)ccc12 | > 100 µM (inactive) | > 100 µM (inactive) | – | –
30 | Cc1ccc(C(=O)C2=C(O)C(=O)N(Cc3ccco3)C2c2cc(Cl)cc(Cl)c2)o1 (stereo not given) | > 100 µM (inactive) | > 100 µM (inactive) | – | –
31 | Cc1ccc(C(=O)C2=C(O)C(=O)N(Cc3ccccc3)C2c2cc(Cl)cc(Cl)c2)o1 (stereo not given) | > 100 µM (inactive) | > 100 µM (inactive) | – | –
32 | NS(=O)(=O)c1ccc2nc(NC(=O)c3ccc4ncoc4c3)sc2c1 | > 26.5 µM (inactive) | inactive | – | –

Next, values leading:

Row | IC50 (NS3h 1b (con1)) | IC50 (NS3h 2a (JFH1)) | pIC50 (NS3h 2a (JFH1)) | pIC50 (NS3h 1b (con1)) | SMILES
33 | > 100 µM (inactive) | > 100 µM (inactive) | – | – | COc1cc(Br)cc(C2C(C(=O)c3ccc(C)o3)=C(O)C(=O)N2Cc2ccco2)c1OC (stereo not given)
34 | > 100 µM (inactive) | > 100 µM (inactive) | – | – | CCCCCCCCCc1nc2sc3c(c2c(=O)n1NC(=O)c1ccccc1[N+](=O)[O-])CC(C)(C)OC3
35 | > 100 µM (inactive) | > 100 µM (inactive) | – | – | Cc1ccc(NC(=O)C2=C(c3ccccc3)S(=O)(=O)CCS2(=O)=O)cc1
36 | > 100 µM (inactive) | > 100 µM (inactive) | – | – | COc1ccc(N=Nc2ccc(O)c3ncccc23)c(S(=O)(=O)N(C)C)c1
37 | > 100 µM (inactive) | > 100 µM (inactive) | – | – | O=C1OC(c2ccc(F)cc2)=C/C1=C/c1ccc([N+](=O)[O-])o1
38 | – | – | 5.70 | 5.67 | Cc1ccc2nc(-c3ccc4nc(-c5ccc6nc(-c7ccc8nc(-c9ccc(N)cc9)sc8c7)sc6c5)sc4c3)sc2c1S(=O)(=O)O
39 | inactive | > 100 µM (inactive) | – | – | CC1CCCCC1NC(=O)COC(=O)c1c2c(nc3ccccc13)/C(=C/c1ccco1)CC2 (stereo not given)
40 | inactive | inactive | – | – | COc1ccc(S(=O)(=O)Nc2ccc(-c3nc4ccc(-c5nc6ccc(C)c(S(=O)(=O)O)c6s5)cc4s3)cc2)cc1
41 | > 100 µM (inactive) | > 100 µM (inactive) | – | – | CCOc1ccc(C2C(C(=O)c3ccc(C)o3)=C(O)C(=O)N2Cc2ccco2)cc1 (stereo not given)
42 | > 100 µM (inactive) | > 100 µM (inactive) | – | – | COc1c(N2CCN(C(=S)NCc3ccccc3)C(C)C2)c(F)cc2c(=O)c(C(=O)O)cn(C3CC3)c12 (stereo not given)
43 | > 100 µM (inactive) | > 100 µM (inactive) | – | – | Cc1cc(N2C(=O)C(O)=C(C(=O)c3ccc(C)o3)C2c2cccc(Cl)c2)no1 (stereo not given)
44 | – | 2.09 µM and > 28 µM (inactive) | – | – | Cc1ccc2nc(-c3ccc4nc(-c5ccc(NC(=O)c6ccc7nc(-c8ccc(NC(=O)OCC9c%10ccccc%10-c%10ccccc%109)cc8)sc7c6)cc5)sc4c3)sc2c1S(=O)(=O)O
45 | > 100 µM (inactive) | > 100 µM (inactive) | – | – | COc1cc(OC)c2ccc(=O)oc2c1[C@H](CCN1CCN(c2ccccc2)CC1)c1ccc(N(C)C)cc1
46 | – | – | 5.58 | 5.37 | Cc1ccc2nc(-c3ccc4nc(-c5ccc(NC(=O)c6ccc(Cl)cc6)cc5)sc4c3)sc2c1S(=O)(=O)O
47 | > 24 µM (inactive) | > 100 µM (inactive) | – | – | Cc1ccc2nc(-c3ccc(NC(=S)Nc4ccccc4Br)cc3)sc2c1
48 | > 100 µM (inactive) | > 100 µM (inactive) | – | – | CCCCOc1ccc(C2C(C(=O)c3ccc(C)o3)=C(O)C(=O)N2c2cc(C)on2)cc1 (stereo not given)

Row | IC50 (NS3h 1b (con1)) | IC50 (NS3h 2a (JFH1)) | pIC50 (NS3h 2a (JFH1)) | pIC50 (NS3h 1b (con1)) | SMILES
49 | > 100 µM (inactive) | > 100 µM (inactive) | – | – | CC(=O)c1ccc(-c2cccc(-c3cc(=O)oc4ccc(C(C)(C)C)cc34)c2)cc1
50 | inactive | inactive | – | – | Cc1ccc2nc(-c3ccc4nc(NC(=O)c5ccc6ncoc6c5)sc4c3)sc2c1
51 | inactive | > 10.9 µM (inactive) | – | – | NS(=O)(=O)c1ccc2nc(NC(=O)c3ccc4ncsc4c3)sc2c1
52 | > 100 µM (inactive) | > 100 µM (inactive) | – | – | CCOc1ccc(N2C(=O)C3Sc4[nH]c(=O)sc4C(/C=C/c4ccccc4)C3C2=O)cc1 (stereo not given)
53 | > 100 µM (inactive) | > 100 µM (inactive) | – | – | CCOc1ccc(C2C(C(=O)c3ccc(C)o3)=C(O)C(=O)N2c2cc(C)on2)cc1 (stereo not given)
54 | inactive | > 100 µM (inactive) | – | – | CN(C)c1ccc(O)c2c1C[C@H]1C[C@H]3[C@H](N(C)C)C(=O)C(C(N)=O)=C(O)[C@@]3(O)C(=O)C1=C2O
55 | > 100 µM (inactive) | > 100 µM (inactive) | – | – | N#C/C(=C\c1ccc(O)c(O)c1)S(=O)(=O)c1ccccc1
56 | > 100 µM (inactive) | > 100 µM (inactive) | – | – | O=c1c(O)cccc2cc(O)c(O)c(O)c12
57 | > 100 µM (inactive) | > 100 µM (inactive) | – | – | Cc1ccc2nc(-c3ccc(NC(=O)c4ccc(F)cc4)cc3)sc2c1
58 | – | – | 5.22 | 5.18 | Cc1ccc2nc(-c3ccc4nc(-c5ccc(NC(=O)c6ccc(NC(=O)OCC7c8ccccc8-c8ccccc87)cc6)cc5)sc4c3)sc2c1S(=O)(=O)O
59 | > 100 µM (inactive) | > 100 µM (inactive) | – | – | CCc1cc2c(=O)n(Cc3ccco3)c(SCc3c(C)noc3C)nc2s1
60 | – | – | 5.60 | 5.75 | Cc1ccc2nc(-c3ccc4nc(-c5ccc(NC(=O)c6ccc(C(F)(F)F)cc6)cc5)sc4c3)sc2c1S(=O)(=O)O
61 | inactive | – | 5.39 | – | Cc1ccc2nc(-c3ccc4nc(-c5ccc(NC(=O)c6ccccc6)cc5)sc4c3)sc2c1S(=O)(=O)O
62 | inactive | inactive | – | – | Cc1ccc2nc(-c3ccc(NC(=O)c4ccc5ncoc5c4)cc3)sc2c1
63 | > 100 µM (inactive) | > 100 µM (inactive) | – | – | Cc1ccc2nc(-c3ccc(NC(=O)c4ccc(F)cc4)cc3)sc2c1S(=O)(=O)O
